The text below walks through data of patent publication US20260265233A1, “BENZOTHIOPHENE DERIVATIVES AS RXFP1 AGONISTS” (BRISTOL-MYERS SQUIBB COMPANY, priority 2021, published 2026).

The target in this assay is T1, human RXFP1 (Homo sapiens, UniProt Q9HBX9).
T1 construct: expressed in transfected cells
T1 sequence (Q9HBX9 1-757): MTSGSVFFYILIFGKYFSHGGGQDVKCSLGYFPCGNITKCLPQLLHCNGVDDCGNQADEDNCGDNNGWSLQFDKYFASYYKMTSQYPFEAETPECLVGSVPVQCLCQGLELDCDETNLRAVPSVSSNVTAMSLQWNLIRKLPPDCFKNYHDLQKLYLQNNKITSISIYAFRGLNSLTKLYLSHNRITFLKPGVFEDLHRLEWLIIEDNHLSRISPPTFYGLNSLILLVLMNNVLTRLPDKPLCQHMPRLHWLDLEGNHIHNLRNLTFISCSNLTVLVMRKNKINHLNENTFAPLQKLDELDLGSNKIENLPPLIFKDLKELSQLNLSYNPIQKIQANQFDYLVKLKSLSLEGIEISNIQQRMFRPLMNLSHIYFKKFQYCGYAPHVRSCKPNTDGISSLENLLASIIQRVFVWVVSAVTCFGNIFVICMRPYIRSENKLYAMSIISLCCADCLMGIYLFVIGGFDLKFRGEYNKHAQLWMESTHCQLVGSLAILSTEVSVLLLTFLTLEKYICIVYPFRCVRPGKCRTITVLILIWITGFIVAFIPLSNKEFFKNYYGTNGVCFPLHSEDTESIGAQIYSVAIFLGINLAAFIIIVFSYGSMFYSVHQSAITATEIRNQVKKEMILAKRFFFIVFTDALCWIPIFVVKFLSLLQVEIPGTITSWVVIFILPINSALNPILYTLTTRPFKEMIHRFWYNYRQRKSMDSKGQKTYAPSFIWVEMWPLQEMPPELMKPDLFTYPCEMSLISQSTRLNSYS
In words: hRXFP1 HEK293 cAMP assay (HTRF). The assay is classed as cell-based. The conditions noted are these: HEK293 cells stably expressing human RXFP1; 30 min at rt; intracellular cAMP by HTRF. In a few lines:
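Agonism is measured as cAMP by HTRF, quantified from a standard curve via the 665/590 nm ratio and fitted with a four-parameter logistic equation. Compounds (0.010 nM to 50 μM final, 2% DMSO) were applied for 30 min at rt to human RXFP1-expressing HEK293 cells in assay buffer containing 0.5 mM IBMX.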
For orientation: EC50 means the midpoint of the concentration-response curve. Low values mean greater potency, high ones weaker potency. The compound `COc1ccc(C23CCC(C(C)(C)O)(CC2)CC3)cc1C(=O)Nc1c(C(=O)Nc2ccc(F)c(C(F)(F)F)c2)sc2cc(C(F)(F)F)ccc12` [Example 40, N-(4-fluoro-3-(trifluoromethyl)phenyl)-3-(5-(4-(2-hydroxypropan-2-yl)bicyclo [2.2.2]octan-1-yl)-2-methoxybenzamido)-6-(trifluoromethyl) benzo[b]thiophene-2-carboxamide] showed an EC50 of 220 nM. As for `COc1ccc(C#CCO)cc1C(=O)Nc1c(C(=O)Nc2ccc(F)c(C(F)(F)F)c2)sc2cc(C(F)(F)F)ccc12` [Example 42, N-(4-fluoro-3-(trifluoromethyl)phenyl)-3-(5-(3-hydroxyprop-1-yn-1-yl)-2-methoxybenzamido)-6-(trifluoromethyl)benzo[b]thiophene-2-carboxamide], the figure is 467 nM. The value for `COc1ccc(/C=C\C(=O)O)cc1C(=O)Nc1c(C(=O)Nc2ccc(F)c(C(F)(F)F)c2)sc2cc(C(F)(F)F)ccc12` [Example 45, (Z)-3-(3-((2-((4-fluoro-3-(trifluoromethyl)phenyl)carbamoyl)-6-(trifluoromethyl)benzo[b]thiophen-3-yl)carbamoyl)-4-methoxyphenyl) acrylic acid] was 975 nM; that for `COc1ccc(C2CC2C(=O)O)cc1C(=O)Nc1c(C(=O)Nc2ccc(F)c(C(F)(F)F)c2)sc2cc(C(F)(F)F)ccc12` (centres unmarked) [Example 46, 2-(3-((2-((4-fluoro-3-(trifluoromethyl)phenyl)carbamoyl)-6-(trifluoromethyl)benzo[b]thiophen-3-yl)carbamoyl)-4-methoxyphenyl) cyclopropane-1-carboxylic acid] was 295 nM; that for `COc1ccc(C2CC2CO)cc1C(=O)Nc1c(C(=O)Nc2ccc(F)c(C(F)(F)F)c2)sc2cc(C(F)(F)F)ccc12` (centres unmarked) [Example 49, N-(4-fluoro-3-(trifluoromethyl)phenyl)-3-(5-(2-(hydroxymethyl)cyclopropyl)-2-methoxybenzamido)-6-(trifluoromethyl) benzo[b]thiophene-2-carboxamide] was 617 nM. The compound `COc1ccc(C2=NOC3CS(=O)(=O)CC23)cc1C(=O)Nc1c(C(=O)Nc2ccc(F)c(C(F)(F)F)c2)sc2cc(C(F)(F)F)ccc12` (centres unmarked) [Example 52, 3-(5-(5,5-dioxido-3a, 4,6,6a-tetrahydrothieno[3,4-d]isoxazol-3-yl)-2-methoxybenzamido)-N-(4-fluoro-3-(trifluoromethyl)phenyl)-6-(trifluoromethyl)benzo[b]thiophene-2-carboxamide] registered an EC50 of 166 nM. As for `COC(=O)C1CC(c2ccc(OC)c(C(=O)Nc3c(C(=O)Nc4ccc(F)c(C(F)(F)F)c4)sc4cc(C(F)(F)F)ccc34)c2)=NO1` (centres unmarked) [Example 57, methyl 3-(3-((2-((4-fluoro-3-(trifluoromethyl)phenyl)carbamoyl)-6-(trifluoromethyl)benzo[b]thiophen-3-yl)carbamoyl)-4-methoxyphenyl)-4,5-dihydroisoxazole-5-carboxylate], the figure is 636 nM. As for `COc1ccc(C2=NCC3(CCCCC3)O2)cc1C(=O)Nc1c(C(=O)Nc2ccc(F)c(C(F)(F)F)c2)sc2cc(C(F)(F)F)ccc12` [Example 58, N-(4-fluoro-3-(trifluoromethyl)phenyl)-3-(2-methoxy-5-(1-oxa-3-azaspiro[4.5]dec-2-en-2-yl)benzamido)-6-(trifluoromethyl)benzo[b]thiophene-2-carboxamide], the figure is 612 nM; as for `COc1ccc(-c2noc(C(C)(C)O)n2)cc1C(=O)Nc1c(C(=O)Nc2ccc(F)c(C(F)(F)F)c2)sc2cc(C(F)(F)F)ccc12` [Example 59, N-(4-fluoro-3-(trifluoromethyl)phenyl)-3-(5-(5-(2-hydroxypropan-2-yl)-1,2,4-oxadiazol-3-yl)-2-methoxybenzamido)-6-(trifluoromethyl) benzo[b]thiophene-2-carboxamide], 216 nM.

Consider `COc1ccc(N2CCC(NCCO)C2)cc1C(=O)Nc1c(C(=O)Nc2ccc(F)c(C(F)(F)F)c2)sc2cc(C(F)(F)F)ccc12` (centres unmarked) [Example 66, N-(4-fluoro-3-(trifluoromethyl)phenyl)-3-(5-(3-((2-hydroxyethyl)amino)pyrrolidin-1-yl)-2-methoxy-benzamido)-6-(trifluoromethyl) benzo[b] thiophene-2-carboxamide], for which the EC50 came to 897 nM. The value for `COc1ccc(N2CCC(NCCS(C)(=O)=O)C2)cc1C(=O)Nc1c(C(=O)Nc2ccc(F)c(C(F)(F)F)c2)sc2cc(C(F)(F)F)ccc12` (centres unmarked) [Example 67, N-(4-fluoro-3-(trifluoromethyl)phenyl)-3-(2-methoxy-5-(3-((2-(methylsulfonyl)ethyl)amino)pyrrolidin-1-yl)benzamido)-6-(trifluoromethyl) benzo[b] thiophene-2-carboxamide] was 1290 nM. As to `COc1ccc(N2CCC(NCCS(C)(=O)=O)C2)cc1C(=O)Nc1c(C(=O)Nc2ccc(F)c(C(F)(F)F)c2)sc2cc(C(F)(F)F)ccc12` (centres unmarked) [Example 68, N-(4-fluoro-3-(trifluoromethyl)phenyl)-3-(2-methoxy-5-(3-((2-(methylsulfonyl)ethyl)amino)pyrrolidin-1-yl)benzamido)-6-(trifluoromethyl) benzo[b] thiophene-2-carboxamide], the midpoint of the response, the EC50, lay at 1080 nM. The value for `COc1ccc(C2CCCN(CCS(C)(=O)=O)CC2)cc1C(=O)Nc1c(C(=O)Nc2ccc(F)c(C(F)(F)F)c2)sc2cc(C(F)(F)F)ccc12` (centres unmarked) [Example 71, N-(4-fluoro-3-(trifluoromethyl)phenyl)-3-(2-methoxy-5-(1-(2-(methylsulfonyl)ethyl)azepan-4-yl)benzamido)-6-(trifluoromethyl) benzo[b] thiophene-2-carboxamide] was 2710 nM; that for `COc1ccc(C2CCCN(CCS(C)(=O)=O)CC2)cc1C(=O)Nc1c(C(=O)Nc2ccc(F)c(C(F)(F)F)c2)sc2cc(C(F)(F)F)ccc12` (centres unmarked) [Example 74, N-(4-fluoro-3-(trifluoromethyl)phenyl)-3-(2-methoxy-5-(1-(2-(methylsulfonyl)ethyl)azepan-4-yl)benzamido)-6-(trifluoromethyl) benzo[b] thiophene-2-carboxamide] was 3370 nM; that for `CNC(=O)CN1CCCC(c2ccc(OC)c(C(=O)Nc3c(C(=O)Nc4ccc(F)c(C(F)(F)F)c4)sc4cc(C(F)(F)F)ccc34)c2)C1` (centres unmarked) [Example 78, N-(4-fluoro-3-(trifluoromethyl)phenyl)-3-(2-methoxy-5-(1-(2-(methylamino)-2-oxoethyl)piperidin-3-yl)benzamido)-6-(trifluoromethyl) benzo[b] thiophene-2-carboxamide] was 835 nM.

Turning to `COc1ccc(C2CCCN(C(=O)OC(C)(C)C)C2)cc1C(=O)Nc1c(C(=O)Nc2ccc(F)c(C(F)(F)F)c2)sc2cc(C(F)(F)F)ccc12` (centres unmarked) [Example 79, tert-butyl 3-(3-((2-((4-fluoro-3-(trifluoromethyl)phenyl)carbamoyl)-6-(trifluoromethyl)benzo[b]thiophen-3-yl)carbamoyl)-4-methoxyphenyl) piperidine-1-carboxylate], the EC50 was 390 nM. The value for `COC(=O)C(=O)N1CCCC(c2ccc(OC)c(C(=O)Nc3c(C(=O)Nc4ccc(F)c(C(F)(F)F)c4)sc4cc(C(F)(F)F)ccc34)c2)C1` (centres unmarked) [Example 80, methyl 2-(3-(3-((2-((4-fluoro-3-(trifluoromethyl)phenyl)carbamoyl)-6-(trifluoromethyl)benzo[b]thiophen-3-yl)carbamoyl)-4-methoxyphenyl)piperidin-1-yl)-2-oxoacetate] was 237 nM.
